{
  "source": "paper PMC5796268",
  "about": "“Affinity Purification and Comparative Biosensor Analysis of Citrulline-Peptide-Specific Antibodies in Rheumatoid Arthritis” (International Journal of Molecular Sciences, 2018)",
  "tested_on": "citrulline-containing peptides / affinity-purified ACPA IgG",
  "assay": "ELISA cross-reaction of affinity-purified ACPA IgG fractions with Cit-peptides",
  "assay_type": "binding, human",
  "conditions": "ACPA 0.1 mg/mL, OD ratio Cit/Arg peptide",
  "from_the_text": "To see if the affinity-purified anti-peptide antibodies were able to recognize a different peptide, ELISA plates were coated with the individual peptides directly (fibrin, enolase, and EBNA-2) or indirectly, using neutravidin-coated plates and biotinylated peptides (filaggrin, collagen II, or vimentin) and the binding of the affinity-purified IgG fractions was monitored (Figure 2).\nFigure 2 Reactivity of affinity-purified IgG fractions with the relevant and irrelevant citrulline-containing peptides. OD ratios that are OD with Cit/OD with Arg-containing peptides are shown. Cut-off values for each Cit- and Arg-containing peptide pair were calculated from OD indexes of 120 healthy samples (the means of OD indexes + 2 × SD). These were below 1.5 for all peptides. Results of a typical experiment.\nELISA was used to determine serum IgG ACPA concentrations and to test ACPA cross-reactions. The biotinylated, citrulline- or arginine-containing filaggrin19, vimentin, collagen II and the multi-epitope peptides were added at 1 µg/mL to the Medisorp plates (Greiner Bio-One GmbH, Kremsmünster, Germany) pre-coated with 5 µg/mL Neutravidin (Pierce Biotechnology, Rockford, IL, USA) overnight, at 4 °C, and then the plates were incubated for 1 h at 37 °C. […]\nSerum samples were diluted 1:100. […] Plates were read at 450 nm with THERMO Multiscan EX ELISA-reader.",
  "data": [
    {"substance": "H-Ttds-AXAXGSGSGXGXG-NH2 [multi-epitope, novel peptide consisting of two-two copies of Ala-Cit and Cit-Gly motifs separated with a neutral spacer, SGSG]", "values": [
      {"measurement": "binding of peptide to other affinity-purified ACPA IgG", "result": "bound to almost all other ACPA IgG, fibrin β was the exception"}
    ]}
  ]
}
